Ends that are not written are not given here.

For this assay, the system named is cells of rat pituitary glands. Kind of assay: in vitro assay of growth hormone release from cultured rat pituitary cells, side-by-side with the hpGRF(1-40)-OH standard. Format: cell-based. Conditions: potency for GH release relative to hGRF(1-40)-OH standard = 1.0; equimolar concentrations; rat pituitary cell cultures; incubation 3 to 4 hours; ir GH by radioimmunoassay; limits in brackets. The protocol:
To determine the relative effectiveness of certain representative synthetic peptides to promote the release of growth hormone, in vitro assays are carried out using synthetic hpGRF(1-40)-OH as a standard in side-by-side comparison with equimolar concentrations of the representative analogs which have been synthesized. Cultures are used which include cells of rat pituitary glands removed some three to five days previously. Such cultures are considered optimal for the secretion of growth hormone and are used for the comparative testing, in the general manner described in Vale et al. Endocrinology, 91, 562-572 (1972) and as more particularly described in Vale et al. Endocrinology, 112, 1553-1555 (1983). Incubation with the substance to be tested is carried out for 3 to 4 hours, and aliquots of the culture medium are removed and processed to measure their contents in immunoreactive GH(ir GH) by a well-characterized radioimmunoassay.
For “[N^a MeTyr^1, Ala^15, CML^22, Nle^27, Asn^28 ]-hGRF(1-29)-NH2”, the “In Vitro Potencies” value is listed as 7.18 (4.1-12.7). Regarding “[N^a MeTyr^1, CMA^13, Ala^15, Nle^27, Asn^28 ]-hGRF(I-29)-NH2”, the “In Vitro Potencies” value was 2.24 (1.4-3.4). Take “hGRF(1-40)--OH: synthetic human pancreatic/hypothalamic GH releasing factor (1-40) free acid, used as the standard in the in vitro and in vivo tests (YADAIFTNSYRKVLGQLSARKLLQDIMSRQQGESNQERGA-OH; UniProt P01286 32-71, looked up, fragment) [reference compound]”: the “In Vitro Potencies” value stood at 1.0.

Consider “[N^a MeTyr^1, Ala^15, CML^23, Nle^27, Asn^28 ]-hGRF(1-29)-NH2”, for which the “In Vitro Potencies” value was 1.96 (1.1-3.3). Turning to “[N^a MeTyr^1, CML^5, Ala^15, Nle^27, Asn^28 ]-hGRF(1-29)-NH2”, the “In Vitro Potencies” value is 3.59 (2.3-5.5). On to “[N^a MeTyr^1, Ala^15, CMA^19, Nle^27, Asn^28 ]-hGRF(1-29)-NH2”, for which the “In Vitro Potencies” value is listed as 7.07 (3.8-13.6). Turning to “[N^a MeTyr^1, Ala^15, CML^17, Nle^27, Asn^28 ]-hGRF(1-29)-NH2”, the “In Vitro Potencies” value was 5.41 (3.5-8.3).

Consider “[N^a MeTyr^1, Ala^15, CML^26, Nle^27, Asn^28 ]-hGRF(1-29)-NH2”, for which the “In Vitro Potencies” value was 6.44 (4.0-10.3).

For the origin of these results see patent US5098995A, “GRF Analogs VIIA” (The Salk Institute For Biological Studies, priority 1989, dated 1992).
